# Results reported in patent publication US8013159B2, “Quinoline derivatives as EP4 antagonists” (Merck Canada Inc., priority 2005, dated 2011).
# Biological target: T1, EP4 receptor (Homo sapiens, UniProt P35408)
# T1 construct: expressed in transfected cells; membranes prepared by differential centrifugation
# Experiment: Prostanoid receptor binding assay (EP4), membranes of transfected HEK 293(ebna) cells
# Conditions: representative data, read-out: Potency in Binding Assay
# Protocol: Prostanoid receptor cDNAs corresponding to full length coding sequences are subcloned into the appropriate sites of mammalian expression vectors and transfected into HEK 293(ebna) cells. HEK 293(ebna) cells expressing the individual cDNAs are grown under selection and individual colonies are isolated after 2-3 weeks of growth using the cloning ring method and subsequently expanded into clonal cell lines.
# Transfected HEK 293(ebna) cells are maintained in culture, harvested and membranes are prepared by differential centrifugation, following lysis of the cells in the presence of protease inhibitors, for use in receptor binding assays. Prostanoid receptor binding assays (for DP1, DP2 (CRTH2), EP 1, EP2, EP3-11, EP4, FP, IP, and TP) are performed in 10 mM MES/KOH (pH 6.0) (EPs, FP and TP) or 10 mM HEPES/KOH (pH 7.4) (DPs and IP), containing 1 mM EDTA, 2.5-30 mM divalent cation and the appropriate radioligand. Synthetic compounds are added in dimethylsulfoxide which is kept constant at 1% (v/v) in all incubations. The reaction is initiated by addition of membrane protein. Non-specific binding is determined in the presence of 10 μM of the corresponding non-radioactive prostanoid. Incubations are conducted for 60-90 min at room temperature or 30° C. and terminated by rapid filtration. Specific binding is calculated by subtracting non specific binding from total binding. The residual specific binding at each ligand concentration is calculated and expressed as a function of ligand concentration in order to construct sigmoidal concentration-response curves. The binding affinity of the compounds is determined by calculating the equilibrium inhibition constant (Ki) from the equation Ki=InPt/1+[radioligand]/Kd where Kd is the equilibrium dissociation constant for the radioligand:receptor interaction and InPt is the inflection point of the dose-response curves.
# T1 sequence (P35408 whole entry): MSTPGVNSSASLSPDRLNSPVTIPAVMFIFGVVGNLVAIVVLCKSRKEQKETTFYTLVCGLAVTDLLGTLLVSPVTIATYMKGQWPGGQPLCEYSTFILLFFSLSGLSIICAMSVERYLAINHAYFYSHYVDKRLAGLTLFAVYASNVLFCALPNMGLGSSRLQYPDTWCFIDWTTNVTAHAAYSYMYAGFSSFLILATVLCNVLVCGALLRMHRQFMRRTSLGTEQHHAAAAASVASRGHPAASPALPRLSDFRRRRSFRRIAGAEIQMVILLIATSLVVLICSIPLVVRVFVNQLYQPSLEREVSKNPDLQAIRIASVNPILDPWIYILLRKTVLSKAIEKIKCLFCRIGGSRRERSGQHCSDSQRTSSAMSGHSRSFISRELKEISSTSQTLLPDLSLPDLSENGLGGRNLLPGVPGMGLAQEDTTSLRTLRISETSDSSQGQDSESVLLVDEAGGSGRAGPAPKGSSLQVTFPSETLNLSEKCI
row,SMILES,IC50
1,"CCOc1c2c(c(OCC)c3ncccc13)CN(c1ccc(CS(=O)(=O)NC(=O)C3(c4ccc(Cl)cc4Cl)CC3)cc1C)C2=O [Example 39, 1-(2,4-dichlorophenyl)-N-{[4-(5,9-diethoxy-6-oxo-6,8-dihydro-7H-pyrrolo[3,4-g]quinolin-7-yl)-3-methylbenzyl]sulfonyl}cyclopropane-carboxamide]",0.76 nM
2,"COc1cccc(OC)c1C1(C(=O)NS(=O)(=O)Cc2ccc(N3Cc4c(c(OCC(F)(F)F)c5cccnc5c4OCC(F)(F)F)C3=O)c(C)c2)CC1 [Example 33, (1-(2,6-dimethoxyphenyl)-N-({3-methyl-4-[6-oxo-5,9-bis(2,2,2-trifluoroethoxy)-6,8-dihydro-7H-pyrrolo[3,4-g]quinolin-7-yl]benzyl}sulfonyl)cyclopropanecarboxamide)]",0.83 nM
3,"CCOc1c2c(c(OCC)c3ncccc13)CN(c1ccc(CS(=O)(=O)NC(=O)Cc3cccc4ccccc34)cc1C)C2=O [Example 19, N-{[4-(5,9-diethoxy-6-oxo-6,8-dihydro-7H-pyrrolo[3,4-g]quinolin-7-yl)-3-methylbenzyl]sulfonyl}-2-(1-naphthyl)acetamide]",0.72 nM
4,"CCOc1c2c(c(OCC)c3ncccc13)CN(c1ccc(CS(=O)(=O)NC(=O)Cc3ccccc3OC)cc1C)C2=O [Example 1, N-{[4-(5,9-diethoxy-6-oxo-6,8-dihydro-7H-pyrrolo[3,4-g]quinolin-7-yl)-3-methylbenzyl]sulfonyl}-2-(2-methoxyphenyl)acetamide]",0.47 nM
5,"CCOc1c2c(c(OCC)c3ncccc13)CN(c1ccc(CS(=O)(=O)NC(=O)Cc3ccccc3C(F)(F)F)cc1C)C2=O [Example 7, N-{[4-(5,9-diethoxy-6-oxo-6,8-dihydro-7H-pyrrolo[3,4-g]quinolin-7-yl)-3-methylbenzyl]sulfonyl}-2-[2-(trifluoromethyl)phenyl]acetamide]",0.42 nM
6,"COc1cccc(OC)c1C1(C(=O)NS(=O)(=O)Cc2ccc(N3Cc4c(c(OCC(F)(F)F)c5cccnc5c4OCC(F)(F)F)C3=O)c(Cl)c2)CC1 [Example 63, N-({3-chloro-4-[6-oxo-5,9-bis(2,2,2-trifluoroethoxy)-6,8-dihydro-7H-pyrrolo[3,4-g]quinolin-7-yl]benzyl}sulfonyl)-1-(2,6-dimethoxyphenyl)cyclopropane-carboxamide]",0.61 nM
